In publication PMC6286779, “HLA-A2-Restricted Epitopes Identified from MTA1 Could Elicit Antigen-Specific Cytotoxic T Lymphocyte Response” (Journal of Immunology Research, 2018):

What was measured:
[1] = tested on: PBMCs from HLA-A*02+ healthy donors; test: IFN-γ ELISPOT of CTLs induced in vitro; type: cell-based, human; settings: PBMCs of six donors stimulated with peptide 10 μg/ml three times, day 21; stimulators peptide-pulsed T2 cells (50 μg/ml); 1 × 10^5 effectors; mean, n = 6
Method: CTL induction in vitro was conducted according to the procedures previously described. Briefly, PBMCs from eight HLA-A^∗02^+ healthy donors were isolated using Ficoll-Paque density gradient centrifugation and resuspended in RPMI 1640 medium supplemented with 10% FBS. Then, PBMCs were stimulated three times (once a week) with the indicated peptides (10 μg/ml) or protein MTA1(1–283) (at final concentrations of 0, 1, 10, 30, and 50 μg/ml) for 21 days. Human recombinant cytokine interleukin-2 (IL-2) (50 U/ml) was added on day 3 and 1 day after each stimulation. The cytotoxic assay (lactate dehydrogenase (LDH) assay) and IFN-γ secretion enzyme-linked immunospot (ELISPOT) assay were performed on day 21.
(§1) The ELISPOT assay was performed using a commercial kit (Dakewe, China) according to the procedures previously described. Briefly, T2 cells incubated with/without candidate peptide (50 μg/ml) were used as the stimulating cells, effector cells (1 × 10^5) and stimulator cells (peptide-pulsed T2 cells or T2 cells only, 1 × 10^5) were seeded into the 96-well plate precoated with an anti-human (or anti-mouse) IFN-γ antibody. After incubation at 37°C for 18 h, cells were removed, and plates were processed for analysis as instructed. The spot number was determined automatically using a computer-assisted spot analyzer (Dakewe, China).

MCF-7 (HLA-A2+, MTA1+) = test: LDH cytotoxicity assay, CTLs induced in vitro; type: cell-based, human; settings: peptide-induced CTLs from healthy donors, E/T 50 : 1
[2] = tested on: HLA-A2.1/K^b transgenic mice; test: IFN-γ ELISPOT of CTLs induced in HLA-A2.1/Kb transgenic mice; type: in vivo; settings: HLA-A2.1/Kb transgenic mice immunized with peptide; stimulators peptide-pulsed T2 cells
Method: In vivo induction of peptide-specific CTLs was performed as previously described. Briefly, peptide (100 μg) and the IA^b-restricted HBV-core128 T helper epitope (140 μg) emulsified in incomplete Freund's adjuvant (IFA) were used to subcutaneously immunize at the base of the tail of HLA-A2.1/K^b transgenic mice three times on days 0, 5, and 10. On day 11, all mice were sacrificed through cervical dislocation. Spleen lymphocytes were isolated and restimulated once with 10 μg/ml peptide and 10 U/ml mIL-2 in vitro for an additional 6 days. LDH and IFN-γ ELISPOT assays were performed on day 6 after in vitro stimulation. E/T ratios used in the LDH assay were 20 : 1, 40 : 1, and 80 : 1.
as §1

## TLLNETESL [Peptide P129]
[1]
  IFN-γ ELISPOT mean spot intensities: 411
MCF-7 (HLA-A2+, MTA1+)
  rate of MCF-7 cell lysis: 9.34%
[2]
  IFN-γ production, ELISPOT, CTLs induced in vivo: greater production of IFN-γ compared with the other peptides

## YLIRRIEEL [Peptide P22]
[1]
  IFN-γ ELISPOT mean spot intensities: 566
MCF-7 (HLA-A2+, MTA1+)
  rate of MCF-7 cell lysis: 16.0%
[2]
  IFN-γ production, ELISPOT, CTLs induced in vivo: greater production of IFN-γ compared with the other peptides
